Patent US10828308B2, “Treatment of non-alcoholic fatty liver disease or non-alcoholic steatohepatitis with delayed-release 6-mercaptopurine” (Hadasit Medical Research Services and Development Ltd., priority 2015, dated 2020)

Tested on: STAM model of non-alcoholic steatohepatitis (NASH mice)
Experiment: In vivo efficacy study of DR6-MP in STAM model of non-alcoholic steatohepatitis
Parameters: species or system C57BL/6 mice
Conditions: 10 mg/kg orally once daily from 6 to 9 weeks of age
Description: Pathogen-free 14 day-pregnant C57BL/6 mice were obtained. NASH was established in male mice by a single subcutaneous injection of 200 τg streptozotocin after birth and feeding with a high fat diet ad libitum after 4 weeks of age (day 28±2). Mice were randomized into 5 groups of 8 mice at 6 weeks of age (day 42±2), the day before the start of treatment. Group 1 (Normal): Eight normal mice were fed with normal diet ad libitum without any treatment until 9 weeks of age. Group 2 (Vehicle): Eight NASH mice were orally administered vehicle [0.5% Methyl cellulose] in a volume of 10 mL/kg once daily from 6 to 9 weeks of age. […]
Mice in all groups were sacrificed for the following assays at 9 weeks of age: • Measurement of organ weight • Individual liver weight was measured. • Liver-to-body weight ratio was calculated. • Biochemical assays • Serum ALT and AST levels were measured. • Liver triglyceride contents were quantified. • Histological analyses for liver sections (according to a routine method). • HE staining and estimation of NAFLD Activity score. • Sirius-red staining and estimation of fibrosis area. • Immunochemical staining for F4/80 and estimation of the percentage of inflammation area. • Gene expression assays using total RNA from the liver. • Real-time RT-PCR analyses were performed for TNF-α, INF-γ, IL-10, MCP-1, CCR2, α-SMA, TGF-β, Collagen Type 1, Collagen Type 3, TIMP-1.

CCCc1nc2c(C)cc(-c3nc4ccccc4n3C)cc2n1Cc1ccc(-c2ccccc2C(=O)O)cc1 [Telmisartan]
fibrosis area (Sirius red-positive area) compared with the Vehicle group: significant decreases in fibrosis area | Sirius red-positive area (%) (mean ± SD) (liver sections at 9 weeks): 0.74 ± 0.21%
